Some test systems named below: SK-OV-3 ovarian; U251 CNS; TK-10 renal; KM12 colon; SNB-75 CNS; SK-MEL-5 melanoma; 786-0 renal; EKVX NSCLC; OVCAR-5 ovarian; HOP-92 NSCLC.
Assay in all cases: NCI tumour cell line growth inhibition, 48 h

Molecules are shown by their SMILES. Where “and” joins values, the source holds several entries; their conditions need not be identical. Equal entries are not always repeated.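 Protocol summary: plate cells (96-well), add compound at 5 concentrations, incubate 48 h, interpolate endpoints linearly. At the GI50, growth is halved. The concentration for full growth arrest is given as TGI.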

On to `NC(=O)C1C(=O)Oc2cccnc21` (configuration not stated), for which the TGI in the assay on SK-OV-3 ovarian, in the assay on U251 CNS, in the assay with TK-10 renal, in the assay on KM12 colon, with SNB-75 CNS and with SK-MEL-5 melanoma was more than 100 µM each time. The TGI with 786-0 renal and with EKVX NSCLC was more than 100 µM each time.

Consider `O=C(NCCOC(=O)CCCCCCCCC(=O)OCCNC(=O)NC(=O)c1cn(Cc2ccccc2)c(=O)[nH]c1=O)NC(=O)c1cn(Cc2ccccc2)c(=O)[nH]c1=O`, for which the TGI in the assay with OVCAR-5 ovarian, with SK-OV-3 ovarian, in the assay with U251 CNS, in the assay on TK-10 renal, in the assay with KM12 colon and in the assay on SNB-75 CNS was more than 100 µM throughout. Further, the TGI with SK-MEL-5 melanoma, in the assay on 786-0 renal and in the assay with EKVX NSCLC was more than 100 µM in each case.

Turning to `CN(C)CCC(/C=C/c1ccccc1)=N\Nc1c(F)c(F)c(F)c(F)c1F`, the TGI in the assay with OVCAR-5 ovarian, in the assay with SK-OV-3 ovarian, in the assay on U251 CNS, with TK-10 renal, with KM12 colon and with SNB-75 CNS was more than 100 µM throughout. The TGI was 28.8 µM with SK-MEL-5 melanoma, more than 100 µM in the assay with 786-0 renal and more than 100 µM with EKVX NSCLC.

On to `O=C(CC/C(CC(=O)c1ccc(Cl)cc1)=N\O)Nc1cccc(Cl)c1`, for which the TGI in the assay on OVCAR-5 ovarian, in the assay on SK-OV-3 ovarian, in the assay with U251 CNS, in the assay with TK-10 renal, in the assay with KM12 colon and in the assay with SNB-75 CNS was more than 100 µM in each case. For the same molecule, the TGI with SK-MEL-5 melanoma, with 786-0 renal and with EKVX NSCLC was more than 100 µM each time.

`CC(=O)O[C@H]1C(=O)[C@@]2(C)C([C@H](OC(=O)c3ccccc3)[C@]3(O)C[C@H](OC(=O)[C@H](O)[C@@H](NC(=O)c4ccc(Cl)cc4)c4ccccc4)C(C)=C1C3(C)C)C1(OC(C)=O)CO[C@@H]1C[C@@H]2O` (some centres not stated): the TGI is 25 µM in the assay on OVCAR-5 ovarian; 13.7 µM and 36.7 µM in the assay on SK-OV-3 ovarian; 25 µM and 47.7 µM with TK-10 renal; 25 µM with KM12 colon; 0.603 µM and 0.178 µM in the assay with SNB-75 CNS; 13.5 µM in the assay with SK-MEL-5 melanoma. For the same molecule, the TGI in the assay with 786-0 renal was 3.09 µM and 29.7 µM; with EKVX NSCLC it was 25 µM and > 100 µM. In addition, the GI50 in the assay with TK-10 renal is 254 nM; in the assay on 786-0 renal, 45 nM; in the assay with EKVX NSCLC it was 1110 nM.

On to `Clc1cc(Cl)cc(Nc2ccc3c(OCCCN4CCOCC4)cccc3n2)c1`, for which the GI50 with OVCAR-5 ovarian is 1830 nM; in the assay on SK-OV-3 ovarian, 2.78 µM; in the assay on U251 CNS, 1980 nM; in the assay with TK-10 renal, 2380 nM; with KM12 colon, 2000 nM; with HOP-92 NSCLC, 2030 nM. Further, the GI50 in the assay with SK-MEL-5 melanoma was 10.1 µM; in the assay with 786-0 renal, 1690 nM; in the assay on EKVX NSCLC, 2950 nM. For the same molecule, the TGI in the assay on OVCAR-5 ovarian turned out to be 4.37 µM; in the assay on SK-OV-3 ovarian, 8.55 µM; in the assay on U251 CNS, 3.95 µM; in the assay on TK-10 renal, 5 µM; in the assay on KM12 colon, 4.13 µM; in the assay with HOP-92 NSCLC, 6.94 µM. Further, the TGI in the assay with SK-MEL-5 melanoma is 23.2 µM; in the assay on 786-0 renal, 3.22 µM; with EKVX NSCLC, 9.15 µM.

Consider `Cc1ncc([N+](=O)[O-])n1CCOc1ccc(C(=O)/C=C/c2ccc(C(F)(F)F)cc2)cc1`, for which the GI50 was 2930 nM with OVCAR-5 ovarian; 4.13 µM in the assay with SK-OV-3 ovarian; 1510 nM with U251 CNS; 2010 nM in the assay with KM12 colon; 2570 nM in the assay with SNB-75 CNS; 6.1 µM with SK-MEL-5 melanoma. Further, the GI50 with 786-0 renal was 1870 nM. Further, the TGI was 14.4 µM in the assay with OVCAR-5 ovarian; 15.3 µM in the assay on SK-OV-3 ovarian; 3.08 µM in the assay on U251 CNS; 4.22 µM with KM12 colon; 12.8 µM with SNB-75 CNS; 20.3 µM in the assay on SK-MEL-5 melanoma. The TGI in the assay with 786-0 renal came out at 3.54 µM.

Take `Cc1cc2nc3c(C(OC4OC(CO)C(O)C(O)C4O)C(O)CO)nn(-c4ccc(F)cc4)c3nc2cc1C` (configuration not stated): the TGI in the assay on OVCAR-5 ovarian, in the assay with SK-OV-3 ovarian, in the assay with U251 CNS, in the assay with TK-10 renal, in the assay on KM12 colon and with SNB-75 CNS was more than 100 µM each time. In addition, the TGI in the assay with 786-0 renal and in the assay on EKVX NSCLC was more than 100 µM throughout.

For `COc1ccc(S(=O)(=O)NNS(C)(=O)=O)cc1OC`, the TGI in the assay with U251 CNS, with TK-10 renal, in the assay with KM12 colon, in the assay with SNB-75 CNS, in the assay on SK-MEL-5 melanoma and in the assay on 786-0 renal was more than 100 µM in each case. Also, the TGI in the assay with EKVX NSCLC is more than 100 µM.

For `Cc1ccc(/C=C2\CCCC(C(NO)c3ccc(C)cc3)C2=NO)cc1` (configuration not stated), the TGI was more than 100 µM in the assay on SK-OV-3 ovarian; more than 100 µM with U251 CNS; more than 100 µM with TK-10 renal; 45.1 µM with KM12 colon; 98.2 µM with SNB-75 CNS; 50.2 µM in the assay with SK-MEL-5 melanoma. The TGI in the assay on 786-0 renal and in the assay with EKVX NSCLC was more than 100 µM throughout.

For `Cc1ccc(-n2cc(/C(N)=N/O)c3ccccc3c2=O)cc1`, the TGI in the assay on SK-OV-3 ovarian, in the assay on U251 CNS, with TK-10 renal, in the assay with KM12 colon, in the assay with SK-MEL-5 melanoma and in the assay with 786-0 renal was more than 100 µM throughout. Also, the TGI in the assay on EKVX NSCLC was more than 100 µM.

`Cc1cccc(NC(=O)CSc2nnc(-c3ccc(N=Cc4ccc(Cl)cc4)cc3)o2)c1`: the TGI with SK-OV-3 ovarian, with U251 CNS, with TK-10 renal, in the assay on KM12 colon, with SNB-75 CNS and in the assay with SK-MEL-5 melanoma was more than 100 µM throughout. For the same molecule, the TGI in the assay with 786-0 renal and in the assay on EKVX NSCLC was more than 100 µM in each case.

Take `O=C(/C=N/O)Nc1cccc(Cl)c1I`: the TGI in the assay on OVCAR-5 ovarian was more than 100 µM; with SK-OV-3 ovarian it was more than 100 µM; with U251 CNS, more than 100 µM; in the assay with TK-10 renal, more than 100 µM; with KM12 colon, more than 100 µM; in the assay on SNB-75 CNS it was 43.4 µM. In addition, the values for the TGI in the assay on SK-MEL-5 melanoma, in the assay with 786-0 renal and in the assay on EKVX NSCLC were more than 100 µM, more than 100 µM and 79.4 µM, respectively.

In the case of `O=C(N[C@H]1CC2(C=C(I)C(=O)C(I)=C2)OC1=O)OCc1ccccc1`, the TGI in the assay on OVCAR-5 ovarian is 33.2 µM; with SK-OV-3 ovarian it was more than 100 µM; with U251 CNS, 31.5 µM; in the assay with TK-10 renal, 32.3 µM; in the assay on KM12 colon, 29.5 µM; in the assay with SNB-75 CNS, 38.2 µM. Also, the TGI worked out at 74.6 µM in the assay on SK-MEL-5 melanoma, 35.2 µM in the assay on 786-0 renal and 27.3 µM in the assay on EKVX NSCLC.

On to `Cc1cc(=O)[nH]c2c1C(=O)c1c(C)cc(=O)n(C)c1C2=O`, for which the TGI in the assay with OVCAR-5 ovarian is 0.31 µM; in the assay with SK-OV-3 ovarian it was 0.432 µM; with U251 CNS, 0.242 µM; in the assay on TK-10 renal, 0.418 µM; in the assay on KM12 colon it was 0.192 µM; with SNB-75 CNS, 0.0325 µM. Moreover, the TGI turned out to be 0.0284 µM with SK-MEL-5 melanoma, 0.182 µM with 786-0 renal and 0.366 µM in the assay on EKVX NSCLC.

Consider `COc1ccc(N=C2C(=O)Nc3ccc(Br)cc32)cc1`, for which the TGI amounted to 58 µM in the assay with OVCAR-5 ovarian; 75.3 µM in the assay with SK-OV-3 ovarian; 96.8 µM with U251 CNS; 56.9 µM with TK-10 renal; 29.4 µM with KM12 colon; 69 µM with HOP-92 NSCLC. Further, the TGI in the assay on SK-MEL-5 melanoma is 23.3 µM; in the assay on 786-0 renal it was 43.6 µM; in the assay with EKVX NSCLC, 47.1 µM.

Turning to `CCOC(=O)c1cnc2c(ccc3ncccc32)c1OCC`, the TGI in the assay with OVCAR-5 ovarian, in the assay with SK-OV-3 ovarian, in the assay with U251 CNS, in the assay on TK-10 renal, with KM12 colon and with SNB-75 CNS was more than 100 µM each time. The TGI with SK-MEL-5 melanoma, with 786-0 renal and with EKVX NSCLC was more than 100 µM throughout.

With `COc1cc2ccc(CC(=O)O)cc2cc1OC`, the TGI in the assay with SK-OV-3 ovarian, in the assay with U251 CNS, with TK-10 renal, with KM12 colon, in the assay on SNB-75 CNS and in the assay with SK-MEL-5 melanoma was more than 100 µM throughout. Moreover, the TGI in the assay on 786-0 renal and in the assay on EKVX NSCLC was more than 100 µM in each case.

Take `CC(=O)Nc1ccc2c(c1)[nH]c(=O)c1cc(Cl)ccc12`: the TGI in the assay with OVCAR-5 ovarian is more than 100 µM; with SK-OV-3 ovarian, more than 100 µM; in the assay with U251 CNS it was more than 100 µM; in the assay on TK-10 renal it was 60.4 µM; with KM12 colon, more than 100 µM; in the assay on SNB-75 CNS, more than 100 µM. Also, the TGI in the assay with SK-MEL-5 melanoma, with 786-0 renal and with EKVX NSCLC was more than 100 µM each time.

Take `Cc1cn([C@H]2CN(O)C[C@@H](CO)O2)c(=O)[nH]c1=O`: the TGI with OVCAR-5 ovarian, with SK-OV-3 ovarian, in the assay on U251 CNS, with TK-10 renal, in the assay on KM12 colon and in the assay on SNB-75 CNS was more than 100 µM in each case. Moreover, the TGI in the assay with SK-MEL-5 melanoma, in the assay with 786-0 renal and in the assay with EKVX NSCLC was more than 100 µM each time.
